Results published in PubChem BioAssay AID248 (DTP/NCI, 2004).
Toxic doses and inconclusive results are not listed. Rule as the data show it: active = T/C of 150% or more; inactive = T/C below 125%.

Tested on: L1210 leukemia ip in BDF1 mice, survival T/C
Assay: NCI In Vivo Anticancer Drug Screen. Data for tumor model L1210 Leukemia (intraperitoneal) in B6D2F1 (BDF1) mice
Settings: endpoint: mean survival time, higher = longer survival
Procedure, shortened: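 Transplanted-tumor mice were given test agent; controls received vehicle only. Survival readings from the two groups were divided (treated over control).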

[1] = dose: 100.0 mg/kg/injection, schedule: Q01DX001 (ip), vehicle: saline with Tween-80
[2] = dose: 200.0 mg/kg/injection, schedule: Q01DX001 (ip), vehicle: saline with Tween-80
[3] = dose: 400.0 mg/kg/injection, schedule: Q01DX001 (ip), vehicle: saline with Tween-80
[4] = dose: 100.0 mg/kg/injection, schedule: Q04DX002 (ip), vehicle: saline with Tween-80
[5] = dose: 200.0 mg/kg/injection, schedule: Q04DX002 (ip), vehicle: saline with Tween-80
[6] = dose: 400.0 mg/kg/injection, schedule: Q04DX002 (ip), vehicle: saline with Tween-80
[7] = dose: 100.0 mg/kg/injection, schedule: Q04DX003 (ip), vehicle: saline
[8] = dose: 100.0 mg/kg/injection, schedule: Q01DX001 (ip), vehicle: saline
[9] = dose: 200.0 mg/kg/injection, schedule: Q01DX001 (ip), vehicle: saline
[10] = dose: 400.0 mg/kg/injection, schedule: Q01DX001 (ip), vehicle: saline
[11] = dose: 100.0 mg/kg/injection, schedule: Q04DX003 (ip), vehicle: saline with Tween-80
[12] = dose: 200.0 mg/kg/injection, schedule: Q04DX003 (ip), vehicle: saline with Tween-80
[13] = dose: 400.0 mg/kg/injection, schedule: Q04DX003 (ip), vehicle: saline with Tween-80
[14] = dose: 5.0 mg/kg/injection, schedule: Q01DX001 (ip), vehicle: saline
[15] = dose: 10.0 mg/kg/injection, schedule: Q01DX001 (ip), vehicle: saline
[16] = dose: 20.0 mg/kg/injection, schedule: Q01DX001 (ip), vehicle: saline

Measured: T/C

CCCCCCCCCCCCCCCc1ccc2c3c(cccc13)C=C2
inactive: dose: 100.0 mg/kg/injection, schedule: Q01DX001 (ip), vehicle: carboxymethylcellulose (CMC) 92 % of control | dose: 200.0 mg/kg/injection, schedule: Q01DX001 (ip), vehicle: carboxymethylcellulose (CMC) 92 % of control | dose: 400.0 mg/kg/injection, schedule: Q01DX001 (ip), vehicle: carboxymethylcellulose (CMC) 90 % of control

O=S=Nc1ccc([N+](=O)[O-])cc1Cl
inactive: dose: 100.0 mg/kg/injection, schedule: Q04DX002 (ip), vehicle: Klucel (hydroxypropylcellulose) (HPC) 103 % of control | dose: 200.0 mg/kg/injection, schedule: Q04DX002 (ip), vehicle: Klucel (hydroxypropylcellulose) (HPC) 106 % of control | dose: 400.0 mg/kg/injection, schedule: Q04DX002 (ip), vehicle: Klucel (hydroxypropylcellulose) (HPC) 100 % of control

CC(=O)Nc1cccc(/C=C/c2nc(N)nc(N)c2-c2ccc(Cl)cc2)c1
inactive: [1] 98 % of control | [2] 87 % of control | [3] 90 % of control

CCN(CC)C(=S)[S][Bi]([S]C(=S)N(CC)CC)[S]C(=S)N(CC)CC
inactive: dose: 100.0 mg/kg/injection, schedule: Q01DX001 (ip), vehicle: steriod suspending solution 112 % of control | dose: 200.0 mg/kg/injection, schedule: Q01DX001 (ip), vehicle: steriod suspending solution 91 % of control | dose: 400.0 mg/kg/injection, schedule: Q01DX001 (ip), vehicle: steriod suspending solution 96 % of control

COc1ccc(OC)c(NC(=O)Oc2cc(C)c(Cl)c(C)c2)c1
inactive: [4] 93 % of control | [5] 96 % of control | [6] 101 % of control

N=C(N)SCc1ccc(CSC(=N)N)cc1
inactive: dose: 12.5 mg/kg/injection, schedule: Q04DX002 (ip), vehicle: saline with Tween-80 102 % of control | dose: 25.0 mg/kg/injection, schedule: Q01DX009 (ip), vehicle: saline 91 % of control | dose: 25.0 mg/kg/injection, schedule: Q04DX002 (ip), vehicle: saline with Tween-80 94 % of control | dose: 25.0 mg/kg/injection, schedule: Q04DX003 (ip), vehicle: saline 103 % of control | dose: 50.0 mg/kg/injection, schedule: Q01DX009 (ip), vehicle: saline 97 % of control | dose: 50.0 mg/kg/injection, schedule: Q04DX003 (ip), vehicle: saline 102 % of control | [7] 105 % of control

[Se]=P(C#Cc1ccccc1)(C#Cc1ccccc1)C#Cc1ccccc1
inactive: [1] 87 % of control | [2] 93 % of control | [3] 87 % of control

CCCc1c(C)nc(N)[nH]c1=O
inactive: dose: 100.0 mg/kg/injection, schedule: Q01DX001 (ip), vehicle: Klucel (hydroxypropylcellulose) (HPC) 102 % of control | dose: 200.0 mg/kg/injection, schedule: Q01DX001 (ip), vehicle: Klucel (hydroxypropylcellulose) (HPC) 100 % of control | dose: 400.0 mg/kg/injection, schedule: Q01DX001 (ip), vehicle: Klucel (hydroxypropylcellulose) (HPC) 97 % of control

CCCCP(=S)(N1CCCCC1)N1CCCCC1
inactive: [7] 95 % of control | dose: 200.0 mg/kg/injection, schedule: Q04DX003 (ip), vehicle: saline 97 % of control | dose: 400.0 mg/kg/injection, schedule: Q04DX003 (ip), vehicle: saline 86 % of control

CC(=O)C(C(=O)NCc1ccccc1)C(c1ccc2c(c1)OCO2)C(C(C)=O)C(=O)NCc1ccccc1 (centres undefined)
inactive: [8] 98 % of control | [9] 96 % of control | [10] 97 % of control

CCCC(O)C1CCCCC1O (centres undefined)
inactive: [11] 113 % of control | [12] 100 % of control | [13] 103 % of control

C=CCOc1ccnc(SC)n1
inactive: dose: 75.0 mg/kg/injection, schedule: Q01DX009 (ip), vehicle: Klucel (hydroxypropylcellulose) (HPC) 98 % of control | dose: 150.0 mg/kg/injection, schedule: Q01DX009 (ip), vehicle: Klucel (hydroxypropylcellulose) (HPC) 103 % of control | dose: 300.0 mg/kg/injection, schedule: Q01DX009 (ip), vehicle: Klucel (hydroxypropylcellulose) (HPC) 90 % of control

CCOC(=O)c1c[nH]c2cc([N+](=O)[O-])ccc2c1=O
inactive: dose: 25.0 mg/kg/injection, schedule: Q04DX003 (ip), vehicle: saline with Tween-80 91 % of control | dose: 50.0 mg/kg/injection, schedule: Q04DX003 (ip), vehicle: saline with Tween-80 86 % of control

CCN=C(N)c1ccc(NC(=O)Nc2ccc(NC(=O)Nc3ccc(C(N)=NCC)cc3)cc2)cc1
inactive: dose: 0.31 mg/kg/injection, schedule: Q01DX Z (ip), vehicle: carboxymethylcellulose (CMC) 98 % of control | dose: 0.62 mg/kg/injection, schedule: Q01DX Z (ip), vehicle: carboxymethylcellulose (CMC) 97 % of control | dose: 1.25 mg/kg/injection, schedule: Q01DX Z (ip), vehicle: carboxymethylcellulose (CMC) 90 % of control | dose: 2.5 mg/kg/injection, schedule: Q01DX Z (ip), vehicle: carboxymethylcellulose (CMC) 107 % of control

CCCCCCOc1ccc(C(=N)N(CCCC)CCCC)c2ccccc12
inactive: [14] 97 % of control | [15] 97 % of control | [16] 89 % of control

COc1ccc(CN2CCCN(Cc3ccc(OC)cc3)C2c2ccncc2C)cc1
inactive: dose: 100.0 mg/kg/injection, schedule: Q01DX001 (ip), vehicle: acetone 96 % of control | dose: 200.0 mg/kg/injection, schedule: Q01DX001 (ip), vehicle: acetone 105 % of control | dose: 400.0 mg/kg/injection, schedule: Q01DX001 (ip), vehicle: acetone 96 % of control

N#CC(C#N)=Cc1ccc(O)cc1
inactive: [14] 105 % of control | [15] 105 % of control | [16] 92 % of control | dose: 40.0 mg/kg/injection, schedule: Q01DX001 (ip), vehicle: saline 103 % of control | dose: 80.0 mg/kg/injection, schedule: Q01DX001 (ip), vehicle: saline 97 % of control

CSc1nnc(SC)s1
inactive: [11] 104 % of control | [12] 93 % of control | [13] 93 % of control

Nn1cnc2c(ncn2C2OC(CO)C(O)C2O)c1=O (centres undefined)
inactive: dose: 100.0 mg/kg/injection, schedule: Q01DX005 (ip), vehicle: saline 88 % of control | dose: 200.0 mg/kg/injection, schedule: Q01DX005 (ip), vehicle: saline 100 % of control

O=C1CC2CCCC(C1)N2Cc1ccccc1
inactive: [8] 92 % of control | [9] 97 % of control | [10] 101 % of control

COc1ccc2c(c1)c(Cl)c1ccc(Cl)cc1[n+]2[O-]
inactive: [4] 91 % of control | [5] 95 % of control | [6] 107 % of control

Nc1ccc2[nH]c3ccccc3c2c1
inactive: dose: 100.0 mg/kg/injection, schedule: Q01DX009 (ip), vehicle: Klucel (hydroxypropylcellulose) (HPC) 95 % of control | dose: 100.0 mg/kg/injection, schedule: Q04DX003 (ip), vehicle: Klucel (hydroxypropylcellulose) (HPC) 104 % of control | dose: 200.0 mg/kg/injection, schedule: Q01DX009 (ip), vehicle: Klucel (hydroxypropylcellulose) (HPC) 95 % of control | dose: 200.0 mg/kg/injection, schedule: Q04DX003 (ip), vehicle: Klucel (hydroxypropylcellulose) (HPC) 91 % of control | dose: 400.0 mg/kg/injection, schedule: Q01DX009 (ip), vehicle: Klucel (hydroxypropylcellulose) (HPC) 92 % of control | dose: 400.0 mg/kg/injection, schedule: Q04DX003 (ip), vehicle: Klucel (hydroxypropylcellulose) (HPC) 94 % of control
